The values that follow come from patent publication US20230391765A1, “HETEROBIFUNCTIONAL COMPOUNDS AS DEGRADERS OF ENL” (ICAHN SCHOOL OF MEDICINE AT MOUNT SINAI, priority 2020, published 2023).

What all share (format): cell-based
The target in assay [1] is T1, ENL (Homo sapiens, UniProt Q03111).
T1 construct: Cells were lysed and expression of endogenous ENL was assessed by Western blot analysis; host or cells: MV4;11
T1 sequence (Q03111 1-559): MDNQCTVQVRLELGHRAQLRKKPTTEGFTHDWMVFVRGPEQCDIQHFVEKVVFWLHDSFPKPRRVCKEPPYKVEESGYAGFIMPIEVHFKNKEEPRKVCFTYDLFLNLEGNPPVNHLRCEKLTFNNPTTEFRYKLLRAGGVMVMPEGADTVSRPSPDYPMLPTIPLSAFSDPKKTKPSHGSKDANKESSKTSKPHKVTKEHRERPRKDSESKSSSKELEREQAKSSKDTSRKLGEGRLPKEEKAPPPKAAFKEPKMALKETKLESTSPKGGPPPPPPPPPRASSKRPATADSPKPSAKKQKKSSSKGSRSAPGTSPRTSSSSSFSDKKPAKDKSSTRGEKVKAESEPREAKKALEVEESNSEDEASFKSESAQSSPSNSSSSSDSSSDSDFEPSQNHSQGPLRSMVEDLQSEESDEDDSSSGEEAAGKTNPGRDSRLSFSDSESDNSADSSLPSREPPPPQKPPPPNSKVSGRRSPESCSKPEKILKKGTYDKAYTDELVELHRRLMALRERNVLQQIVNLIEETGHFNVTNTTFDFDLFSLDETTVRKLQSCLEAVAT
Description: Western blot of ENL protein levels in MV4; 11 cells. Particulars: 11 cells; for effect of proteasome inhibitor MG132 on the ENL degradation induced by the degrader: 1 μM degrader with or without 1 μM MG132 for 6 h. On the procedure: MV4; 11 cells were treated with DMSO or the indicated compounds (the same panel of ENL degraders as shown in FIG. 4) at 1 μM and 10 μM for 24 h. Cells were lysed and expression of ENL was assessed by Western blot analysis.
DMSO treated cells were used as control.
MV4; 11 cells were treated with LQ076-122, or LQ081-107 at 0.3, 1, 3, 10, and 30 μM for 24 h. DMSO treated cells were used as control. Cells were lysed and expression of ENL and GAS41 was assessed by Western analysis.
MV4; 11 cells were treated with DMSO or the indicated compounds at 1 μM and 10 μM for 6 h. Cells were lysed and expression of endogenous ENL was assessed by Western blot analysis.
Cells were treated with 1 μM of ENL degrader with or without 1 μM proteasome inhibitor MG132 for 6 h.
(§1) ENL degraders were dissolved in DMSO. DMSO with no degraders was used as the control. 1×10^6 leukemia cells were seeded in 5 mL medium. For prescreening of compounds, each test compound was added to the medium at 1 μM and 10 μM. Cells were collected after 24 h treatment. For the concentration-dependent treatment, candidate compounds were added to the medium at a series of concentration as indicated in figures. Cells were collected after 24 h treatment. For the time-course treatment, candidate compounds were added to the medium at a final concentration of 4 μM (MV4; 11 cells) or 8 μM (MOLM13 cells). Cells were collected at the indicated timepoints (in hours: 12, 16, 20, 24 and 36 h).
(§2) After ENL degrader treatment, cells were collected, lysed, and total cell lysates were used for Western blot. The following primary antibodies were used: ENL (Cell Signaling Technology), GAS41 (Santa Cruz), GAPDH (Santa Cruz), β-actin (Sigma). Blots were detected using HRP-conjugated secondary antibodies.
(In western blotting, separated proteins are transferred to a membrane and probed.)

The target in assay [2] is T1, ENL. The assay can be described thus: Western blot of ENL protein levels in MOLM13 cells. Here is the method:
MOLM13 cells were treated with LQ076-122 or LQ081-108 at 0, 0.25, 0.5, 1, 1.5, 2, 2.5, 3, 4 and 8 μM for 24 h.
MOLM13 cells were treated with DMSO or 8 μM of LQ076-122 for 12, 16, 20, 24 and 36 h.
MV4; 11, MOLM13 and Jurkat cells were treated with LQ108-69, LQ108-71, LQ108-72, LQ126-62 and LQ126-63 at 0, 1 nM, 10 nM, 100 nM, 1 μM, and 10 μM doses for 6 h. DMSO was used as negative control.
as §1, §2

For assay [3], the target named is T1, ENL. The assay can be described thus: Western blot of ENL protein levels in Jurkat cells.
Source text: […] DMSO was used as negative control.
as §2

The test system of assay [4] is ENL-dependent MV4; 11 cells. The assay can be described thus: Cell viability (CellTiter-Glo), MV4; 11 cells. Conditions: 11 cells, 1.25, 2.5, 5 and 10 μM for 72 h. Here is the method: MV4; 11 (FIG. 13A), MOLM13 (FIG. 13B) and Jurkat (FIG. 13C) cells were seeded at 2×10^5 cells/mL density and treated with DMSO or indicated compounds 0.5, 1, 2 and 4 μM for 72 h. Cell viability was measured using CellTiter-Glo reagent (Promega) and relative cell viability was calculated by normalization to DMSO samples.
ENL-dependent MV4; 11 cells were seeded at 2×10^5 cells/mL density and treated with DMSO or the indicated compounds at 0, 1.25, 2.5, 5 and 10 μM for 72 h. Cell viability was measured using CellTiter-Glo reagent (Promega) and relative cell viability was calculated by normalization to DMSO samples.
ENL-dependent MV4; 11 and ENL-independent Jurkat cells were seeded at 2×10^5 cells/mL density and treated with DMSO or indicated compounds at 10 nM, 100 nM, 1 μM and 10 μM for 3 days (A) or 6 days (B). Cell viability was measured using CellTiter-Glo reagent (Promega) and relative cell viability was calculated by normalization to DMSO samples.
MV4; 11 or MOLM13 cells were seeded at 0.2×10^6 cells/mL density. Cells were treated with DMSO or ENL degraders at indicated concentrations. Each treatment was done in triplicates. After 72 h treatment, 100 μL of cell suspension from each treatment was mixed with 25 μL of CellTiter-Glo reagent (Promega) and incubated for 10 min before the luminescence signals were detected on a plate reader.

For the molecule `Cn1ncc2cc(C(=O)Nc3ccc4[nH]c(CN5CCC(CCNC(=O)CCCCCCNc6cccc7c6C(=O)N(C6CCC(=O)NC6=O)C7=O)C5)nc4c3)ccc21` (centres unmarked) [LQ076-98, N-(2-((3-(2-(7-((2-(2,6-dioxopiperidin-3-yl)-1,3-dioxoisoindolin-4-yl)amino)heptanamido)ethyl)pyrrolidin-1-yl)methyl)-1H-benzo[d]imidazol-5-yl)-1-methyl-1H-indazole-5-carboxamide], on ENL [1] (10 μM, 24 h), the “reduction of ENL protein levels” value is on record as “effective in reducing ENL protein levels”.

Consider `Cn1ncc2cc(C(=O)Nc3ccc4[nH]c(CN5CCC(CCNC(=O)CCCCCCCNc6cccc7c6C(=O)N(C6CCC(=O)NC6=O)C7=O)C5)nc4c3)ccc21` (centres unmarked) [LQ076-99, N-(2-((3-(2-(8-((2-(2,6-dioxopiperidin-3-yl)-1,3-dioxoisoindolin-4-yl)amino)octanamido)ethyl)pyrrolidin-1-yl)methyl)-1H-benzo[d]imidazol-5-yl)-1-methyl-1H-indazole-5-carboxamide], for which, at ENL [1] (10 μM, 24 h), the “reduction of ENL protein levels” value was “effective in reducing ENL protein levels”.

With `Cc1ncsc1-c1ccc(CNC(=O)[C@@H]2C[C@@H](O)CN2C(=O)[C@@H](NC(=O)CCCCCCCCNC(=O)c2ccc(C(=O)Nc3ccc4[nH]c(CN5CCC[C@@H]5C)nc4c3)cc2)C(C)(C)C)cc1` [LQ076-120, N^1-(9-(((S)-1-((2S,4R)-4-hydroxy-2-((4-(4-methylthiazol-5-y)benzyl)carbamoyl)pyrrolidin-1-yl)-3,3-dimethyl-1-oxobutan-2-yl)amino)-9-oxononyl)-N^4-(2-(((S)-2-methylpyrrolidin-1-yl)methyl)-1H-benzo[d]imidazol-5-yl)terephthalamide], the “reduction of ENL protein levels” value on ENL [1] (10 μM, 24 h) is given as “effective in reducing ENL protein levels”.

As for `Cc1ncsc1-c1ccc(CNC(=O)[C@@H]2C[C@@H](O)CN2C(=O)[C@@H](NC(=O)CCCCCCCCCNC(=O)c2ccc(C(=O)Nc3ccc4[nH]c(CN5CCC[C@@H]5C)nc4c3)cc2)C(C)(C)C)cc1` [LQ076-121, N^1-(10-(((S)-1-((2S,4R)-4-hydroxy-2-((4-(4-methylthiazol-5-yl)benzyl)carbamoyl)pyrrolidin-1-yl)-3,3-dimethyl-1-oxobutan-2-yl)amino)-10-oxodecyl)-N^4-(2-(((S)-2-methylpyrrolidin-1-yl)methyl)-1H-benzo[d]imidazol-5-yl)terephthalamide], the “reduction of ENL protein levels” value on ENL [1] (10 μM, 24 h) is recorded as “effective in reducing ENL protein levels”.

On to `C[C@H]1CCCN1Cc1nc2cc(NC(=O)c3ccc(C(=O)NCCCCCCCCNc4cccc5c4C(=O)N(C4CCC(=O)NC4=O)C5=O)cc3)ccc2[nH]1` (stereo partly drawn) [LQ076-134, N^1-(8-((2-(2,6-dioxopiperidin-3-yl)-1,3-dioxoisoindolin-4-yl)amino)octyl)-N^4-(2-(((S)-2-methylpyrrolidin-1-yl)methyl)-1H-benzo[d]imidazol-5-yl)terephthalamide], for which, at ENL [1] (10 μM, 24 h), the “reduction of ENL protein levels” value is “effective in reducing ENL protein levels”.

Consider `Cc1ncsc1-c1ccc(CNC(=O)[C@@H]2C[C@@H](O)CN2C(=O)[C@@H](NC(=O)C2(F)CC2)C(C)(C)C)c(OCC(=O)NCCCCCCCNC(=O)c2ccc3c(c2)[C@H](NC(=O)c2cc(-c4ccc(C(=O)N(C)C)c(O)c4)on2)CC3)c1` [LQ108-63, 5-(4-(dimethylcarbamoyl)-3-hydroxyphenyl)-N-((R)-6-((7-(2-(2-(((2S,4R)-1-((S)-2-(1-fluorocyclopropane-1-carboxamido)-3,3-dimethylbutanoyl)-4-hydroxypyrrolidine-2-carboxamido)methyl)-5-(4-methylthiazol-5-yl)phenoxy)acetamido)heptyl)carbamoyl)-2,3-dihydro-1H-inden-1-yl)isoxazole-3-carboxamide], for which the “effect of proteasome inhibitor MG132 on the ENL degradation induced by the degrader” value at ENL [1] is listed as “partially blocks the ENL degradation”.

Take `Cc1ncsc1-c1ccc([C@H](CC(=O)NCCCCCCNC(=O)c2ccc3c(c2)[C@H](NC(=O)c2cc(-c4ccc(C(=O)N(C)C)c(O)c4)on2)CC3)NC(=O)[C@@H]2C[C@@H](O)CN2C(=O)[C@@H](NC(=O)C2(F)CC2)C(C)(C)C)cc1` [LQ108-69, 5-(4-(dimethylcarbamoyl)-3-hydroxyphenyl)-N—((R)-6-((6-((S)-3-((2S,4R)-1-((S)-2-(1-fluorocyclopropane-1-carboxamido)-3,3-dimethylbutanoyl)-4-hydroxypyrrolidine-2-carboxamido)-3-(4-(4-methylthiazol-5-yl)phenyl)propanamido)hexyl)carbamoyl)-2,3-dihydro-1H-inden-1-yl)isoxazole-3-carboxamide]: the “reduction of ENL protein levels” value on ENL [1] (1 nM to 10 μM for 6 h), at ENL [2] (1 nM to 10 μM for 6 h) and on ENL [3] (1 nM to 10 μM for 6 h) was “reduced ENL protein levels in a concentration-dependent manner” throughout. Besides, the “effect of proteasome inhibitor MG132 on the ENL degradation induced by the degrader” value on ENL [1] is reported as “partially blocks the ENL degradation”. Further, the “ENL protein level after long treatment” value at ENL [1] (1 μM for 48 and 72 h) was “maintained the ENL protein at low levels”; on ENL [2] (1 μM for 48 and 72 h), “maintained the ENL protein at low levels”; at ENL [3] (1 μM for 48 and 72 h), “maintained the ENL protein at low levels”. In addition, the “suppression of cell growth (relative cell viability)” value in assay [4] was “significantly suppressed MV4; 11 cell growth at low micromolar concentration”.
